Tests used:
[1] = molecular target: T1, Transient receptor potential cation channel subfamily V member 1 (Homo sapiens, UniProt Q8NER1); experiment: Antagonist activity at human TRPV1 heterologously expressed in CHO cells assessed as inhibition of capsaicin-induced activation by FLIPR assay; assay type: cell-based
[2] = molecular target: T1, Transient receptor potential cation channel subfamily V member 1; experiment: Antagonist activity at human TRPV1 heterologously expressed in CHO cells assessed as inhibition of NADA-induced activation by FLIPR assay; assay type: cell-based
[3] = molecular target: T1, Transient receptor potential cation channel subfamily V member 1; experiment: Antagonist activity at human TRPV1 heterologously expressed in CHO cells assessed as inhibition of low pH-induced activation; assay type: cell-based
[4] = molecular target: T1, Transient receptor potential cation channel subfamily V member 1; experiment: Antagonist activity at human TRPV1 heterologously expressed in CHO cells assessed as inhibition of low 45 degC heat -induced activation; assay type: cell-based
[5] = test system: Mus musculus; experiment: Inhibition of capsaicin-induced hypothermia in mouse at 0.3 mg/kg, po administered 15 mins prior to capsaicin challenge measured 30 mins post capsaicin challenge; assay type: functional
[6] = test system: Mus musculus; experiment: Inhibition of capsaicin-induced hypothermia in mouse at 3 mg/kg, po administered 15 mins prior to capsaicin challenge measured 30 mins post capsaicin challenge; assay type: functional
[7] = test system: Mus musculus; experiment: Analgesic activity in Bennett mouse model of neuropathic pain assessed as reduction of CCI-induced cold allodynia at 10 mg/kg, po; assay type: functional
[8] = test system: Mus musculus; experiment: Inhibition of capsaicin-induced hypothermia in mouse at 0.3 and 3 mg/kg, po administered 15 mins prior to capsaicin challenge measured 30 mins post capsaicin challenge; assay type: functional, organism-based
[9] = test system: Mus musculus; experiment: Analgesic activity in Bennett mouse model of neuropathic pain assessed as reduction of CCI-induced cold allodynia at 0.0001 to 100 mg/kg, po; assay type: functional, organism-based
[10] = test system: Mus musculus; experiment: Induction of hyperthermia in mouse at 0.3 and 3 mg/kg, po; conditions: in vivo

T1 sequence (Q8NER1 whole entry): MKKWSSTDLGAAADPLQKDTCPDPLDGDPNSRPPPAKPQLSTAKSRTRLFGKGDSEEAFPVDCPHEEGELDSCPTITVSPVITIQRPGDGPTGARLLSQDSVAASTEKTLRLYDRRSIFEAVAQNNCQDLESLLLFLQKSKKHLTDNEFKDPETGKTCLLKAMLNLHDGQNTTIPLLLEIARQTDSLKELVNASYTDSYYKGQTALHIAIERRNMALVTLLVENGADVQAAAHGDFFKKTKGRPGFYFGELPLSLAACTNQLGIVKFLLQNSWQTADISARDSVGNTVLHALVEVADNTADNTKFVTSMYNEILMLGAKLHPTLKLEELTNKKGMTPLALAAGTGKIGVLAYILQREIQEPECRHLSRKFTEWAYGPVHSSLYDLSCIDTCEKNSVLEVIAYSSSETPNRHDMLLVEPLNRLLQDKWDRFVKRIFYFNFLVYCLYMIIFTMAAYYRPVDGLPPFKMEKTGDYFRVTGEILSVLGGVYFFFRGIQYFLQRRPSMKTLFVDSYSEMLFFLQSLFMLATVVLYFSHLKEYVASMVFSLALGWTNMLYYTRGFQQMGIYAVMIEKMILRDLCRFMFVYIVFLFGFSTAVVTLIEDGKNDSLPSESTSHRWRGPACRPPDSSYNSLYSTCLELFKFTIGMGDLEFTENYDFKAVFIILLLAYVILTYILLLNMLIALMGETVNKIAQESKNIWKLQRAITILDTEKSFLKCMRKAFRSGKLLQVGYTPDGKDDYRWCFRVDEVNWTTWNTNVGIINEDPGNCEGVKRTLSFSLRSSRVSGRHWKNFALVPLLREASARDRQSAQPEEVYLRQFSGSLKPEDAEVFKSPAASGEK

| Compound | Ki ([1]; read-out: Ki) | other results |
| --- | --- | --- |
| CC(C(=O)NCc1ccc(C(F)(F)F)cc1N1CCN(c2cccc(C(F)(F)F)c2)CC1)c1ccc(NS(C)(=O)=O)c(F)c1 (stereo not given) | 3.9 nM | – |
| CC(C)CCOc1cc(C(F)(F)F)ccc1CNC(=O)C(C)c1ccc(NS(C)(=O)=O)c(F)c1 (stereo not given) | 0.5 nM | – |
| CC(C(=O)NCc1ccc(C(F)(F)F)cc1-c1ccc(F)c(Cl)c1)c1ccc(NS(C)(=O)=O)c(F)c1 (stereo not given) | 0.6 nM | – |
| CC(C(=O)NCc1ccc(C(F)(F)F)cc1SCc1ccccc1Cl)c1ccc(NS(C)(=O)=O)c(F)c1 (stereo not given) | 0.9 nM | – |
| CC(C(=O)NCc1ccc(C(F)(F)F)cc1OCc1ccc(F)cc1)c1ccc(NS(C)(=O)=O)c(F)c1 (stereo not given) | 0.5 nM | – |
| CC(C(=O)NCc1ccc(C(F)(F)F)cc1SCCCO)c1ccc(NS(C)(=O)=O)c(F)c1 (stereo not given) | – | Ki ([1]; cho): Not Active |
| CCCCCCSc1cc(C(F)(F)F)ccc1CNC(=O)C(C)c1ccc(NS(C)(=O)=O)c(F)c1 (stereo not given) | 1.8 nM | – |
| CC(C(=O)NCc1ccc(C(F)(F)F)nc1-c1ccc(F)c(Cl)c1)c1ccc(NS(C)(=O)=O)c(F)c1 (stereo not given) | 0.6 nM | – |
| CC(C)CCSc1cc(C(F)(F)F)ccc1CNC(=O)C(C)c1ccc(NS(C)(=O)=O)c(F)c1 (stereo not given) | 1.4 nM | – |
| CC(C(=O)NCc1ccc(C(F)(F)F)cc1N1CCC(Cc2ccc(F)cc2)CC1)c1ccc(NS(C)(=O)=O)c(F)c1 (stereo not given) | 0.4 nM | – |
| CC(C(=O)NCc1ccc(C(F)(F)F)cc1[N+](=O)[O-])c1ccc(NS(C)(=O)=O)c(F)c1 (stereo not given) | – | Ki ([1]; cho): Not Active |
| COc1ccc(CSc2cc(C(F)(F)F)ccc2CNC(=O)C(C)c2ccc(NS(C)(=O)=O)c(F)c2)cc1 (stereo not given) | 2.3 nM | – |
| CC(C(=O)NCc1ccc(C(F)(F)F)cc1SC1CCCC1)c1ccc(NS(C)(=O)=O)c(F)c1 (stereo not given) | 0.3 nM | Ki [2]: 0.03 nM; IC50 [3]: 32 nM; IC50 [4]: 37.2 nM; inhibition in vivo at 0.3 mg/kg [5]: 38%; inhibition in vivo at 3 mg/kg [6]: 80%; MPE [7]: 48%; inhibition [8]: Dose-dependent effect; Activity [9]: Dose-dependent effect; Activity [10]: Non-toxic |
| CC(C)COc1cc(C(F)(F)F)ccc1CNC(=O)C(C)c1ccc(NS(C)(=O)=O)c(F)c1 (stereo not given) | 0.8 nM | – |
| C[C@@H](C(=O)NCc1ccc(C(F)(F)F)cc1SC1CCCCC1)c1ccc(NS(C)(=O)=O)c(F)c1 | 13.9 nM | – |
| CC(C(=O)NCc1ccc(C(F)(F)F)cc1SC1CCCCC1)c1ccc(NS(C)(=O)=O)c(F)c1 (stereo not given) | 0.5 nM | – |
| CCCCSc1cc(C(F)(F)F)ccc1CNC(=O)C(C)c1ccc(NS(C)(=O)=O)c(F)c1 (stereo not given) | 1.9 nM | – |
| CC1CCN(c2cc(C(F)(F)F)ccc2CNC(=O)C(C)c2ccc(NS(C)(=O)=O)c(F)c2)CC1 (stereo not given) | 0.9 nM | – |
| CC(C(=O)NCc1ccc(C(F)(F)F)cc1SCc1ccccc1)c1ccc(NS(C)(=O)=O)c(F)c1 (stereo not given) | 0.5 nM | – |
| CC(C(=O)NCc1ccc(C(F)(F)F)cc1-c1cccc(Cl)c1)c1ccc(NS(C)(=O)=O)c(F)c1 (stereo not given) | 1 nM | – |
| CC(C(=O)NCc1ccc(C(F)(F)F)nc1N1CCC(C(F)(F)F)CC1)c1ccc(NS(C)(=O)=O)c(F)c1 (stereo not given) | 0.4 nM | – |
| CC(C(=O)NCc1ccc(C(F)(F)F)cc1SCc1ccc(Cl)cc1)c1ccc(NS(C)(=O)=O)c(F)c1 (stereo not given) | 1.1 nM | – |
| CC(C(=O)NCc1ccc(C(F)(F)F)cc1N1CCC(Cc2cccc(F)c2)CC1)c1ccc(NS(C)(=O)=O)c(F)c1 (stereo not given) | 0.4 nM | – |
| CCCCN(C)c1cc(C(F)(F)F)ccc1CNC(=O)C(C)c1ccc(NS(C)(=O)=O)c(F)c1 (stereo not given) | 1.2 nM | – |
| CC(C(=O)NCc1ccc(C(F)(F)F)cc1SCc1ccco1)c1ccc(NS(C)(=O)=O)c(F)c1 (stereo not given) | 3.2 nM | – |
| CCCCCCc1cc(C(F)(F)F)ccc1CNC(=O)C(C)c1ccc(NS(C)(=O)=O)c(F)c1 (stereo not given) | 0.4 nM | – |
| CCCCCSc1cc(C(F)(F)F)ccc1CNC(=O)C(C)c1ccc(NS(C)(=O)=O)c(F)c1 (stereo not given) | 2.3 nM | – |
| CCCOc1cc(C(F)(F)F)ccc1CNC(=O)C(C)c1ccc(NS(C)(=O)=O)c(F)c1 (stereo not given) | 2 nM | – |
| C[C@H](C(=O)NCc1ccc(C(F)(F)F)cc1SC1CCCCC1)c1ccc(NS(C)(=O)=O)c(F)c1 | 0.3 nM | Ki [2]: 0.03 nM; IC50 [3]: 20.4 nM; IC50 [4]: 7.3 nM; inhibition in vivo at 3 mg/kg [6]: 57%; Activity [9]: Dose-dependent effect; Activity [10]: Non-toxic |
| CC(C(=O)NCc1ccc(C(F)(F)F)cc1C1CCCCC1)c1ccc(NS(C)(=O)=O)c(F)c1 (stereo not given) | 0.6 nM | – |

Source: ChEMBL document CHEMBL3627691, “Structure activity relationships of benzyl C-region analogs of 2-(3-fluoro-4-methylsulfonamidophenyl)propanamides as potent TRPV1 antagonists” (Bioorg Med Chem, 2015)
